Measured values reported in PMC12320245 (International Journal of Biological Sciences, 2025).

What was measured:
[1] = test system: LAMP2 in primary hippocampal neurons; experiment: Scratch injury: LAMP2 Western blot; assay type: cell-based, rat; settings: scratch-AMX vs scratch-vehicle, 24 hours after scratch
Protocol: Primary hippocampal neurons were obtained from embryonic day 18 (E18) Sprague-Dawley rat embryos. Pregnant rats were anesthetized using 2-3% isoflurane in a gas mixture of 70% nitrous oxide and 30% oxygen. Following euthanasia, the hippocampi were carefully dissected, minced, and enzymatically dissociated using TrypLE Express (Gibco, NY, USA) for 10 minutes at 37°C. The tissue was further mechanically dissociated using fire-polished glass pipettes, and the resulting cell suspension was filtered through a 70 μm cell strainer to remove debris. Neurons were seeded at a density of 3 × 10^5 cells per well in 24-well plates pre-coated with poly-L-lysine (Sigma-Aldrich, Saint Louis, MO, USA). Cells were maintained in neurobasal medium supplemented with B-27 (Thermo Fisher Scientific, Waltham, MA, USA), GlutaMAX (Gibco), and penicillin-streptomycin. […]
A scratch injury model was used to mimic TBI in vitro. […] After the treatment period, neuronal damage and recovery were assessed using appropriate evaluation methods.
Twenty-four hours after the scratch injury, cells were lysed using RIPA buffer (IBS-BR002, iNtRON, Republic of Korea) supplemented with protease and phosphatase inhibitors (Sigma, USA). […] Protein detection was performed using a chemiluminescence bioimaging device (Amersham Imager 680, Cytiva, MA, USA), and the results were analyzed to determine protein expression levels.

[2] = test system: cultured cortical astrocytes; experiment: p-PKA substrate Western blot in astrocytes; assay type: cell-based; settings: 10 µM AMX for 1 and 4 hours
[3] = test system: primary hippocampal neurons; experiment: Scratch injury: MAP2 / NeuN immunocytochemistry; assay type: cell-based, rat; settings: scratched neurons, 24 hours after scratch
Protocol: (§1) Primary hippocampal neurons were obtained from embryonic day 18 (E18) Sprague-Dawley rat embryos. Pregnant rats were anesthetized using 2-3% isoflurane in a gas mixture of 70% nitrous oxide and 30% oxygen. Following euthanasia, the hippocampi were carefully dissected, minced, and enzymatically dissociated using TrypLE Express (Gibco, NY, USA) for 10 minutes at 37°C. The tissue was further mechanically dissociated using fire-polished glass pipettes, and the resulting cell suspension was filtered through a 70 μm cell strainer to remove debris. Neurons were seeded at a density of 3 × 10^5 cells per well in 24-well plates pre-coated with poly-L-lysine (Sigma-Aldrich, Saint Louis, MO, USA). Cells were maintained in neurobasal medium supplemented with B-27 (Thermo Fisher Scientific, Waltham, MA, USA), GlutaMAX (Gibco), and penicillin-streptomycin. The cultures were incubated at 37.5°C in a humidified atmosphere containing 5% CO₂. After seven days of growth, neurons were fixed with 4% paraformaldehyde (PFA) for 15 minutes at room temperature and subsequently stored at 4°C until their further use for immunostaining.
(§2) A scratch injury model was used to mimic TBI in vitro. […] After the treatment period, neuronal damage and recovery were assessed using appropriate evaluation methods. […]

[4] = test system: primary hippocampal neurons; experiment: Scratch injury: p-PKA immunofluorescence; assay type: cell-based, rat; settings: 24 hours after scratch injury
Protocol: as §1, §2

hippocampus of TBI rats = experiment: Controlled cortical impact TBI: NeuN immunohistochemistry; assay type: in vivo, rat; settings: CA1, CA3, GCL, hilus, 2 weeks post-TBI, vs TBI-vehicle
Protocol: This study used male Sprague-Dawley rats weighing 300-350 g and aged 8 weeks, obtained from DBL Co. (Chungcheongbuk-do, Republic of Korea). The rats were housed in a controlled environment with a temperature of 20 ± 2 °C, a relative humidity of 55 ± 5%, and a 12-hour light/dark cycle. They were provided ad libitum access to food and water. To minimize stress associated with transportation, animals underwent a one-week acclimatization period before the start of the experiments. All experimental procedures were conducted in compliance with the guidelines of the National Institutes of Health for the care and use of laboratory animals and were approved by the Hallym University Institutional Animal Care and Use Committee (protocol # Hallym 2022-23, approved on July 15, 2022). This manuscript follows the principles outlined in the Animal research: reporting in vivo experiments (ARRIVE) guidelines.
A controlled cortical impact (CCI) model was used to induce TBI in rats. Animals were anesthetized with 1-1.5% isoflurane in a 30:70 oxygen-to-nitrous oxide mixture and securely positioned in a stereotaxic frame. A 3 mm craniotomy was performed using a portable drill at a site 2.8 mm lateral to the midline and 3.0 mm posterior to Bregma. […]

CC(C)c1ccc2oc3nc(N)c(C(=O)O)cc3c(=O)c2c1 [AMX, amlexanox]
LAMP2 expression [1]: significantly preserved | p-PKA levels [2]: increased p-PKA levels | MAP2 fluorescence intensity (dendritic loss) [3]: Increased MAP2 fluorescence intensity | number of NeuN-positive neurons [3]: significantly higher | phosphorylation of PKA (immunofluorescence, Figure S2E-J) [4]: increasing the phosphorylation of PKA | NeuN-positive cell counts (hippocampus of TBI rats): higher NeuN-positive cell counts
